From publication PMC5218480 (PLoS ONE, 2017) come the findings set out here.

The subject of the test is MV-4-11 cells. Description: Gene expression microarray analysis (Affymetrix PrimeView) and GSEA. Format: cell-based, human. Set-up: RFU PODN (11730768_x_at) / Fold change /veh PODN (11730768_x_at) / RFU LINC00158 (11744669_a_at) / Fold change /veh LINC00158 (11744669_a_at) / RFU DUSP10 (11751237_a_at) / Fold change /veh DUSP10 (11751237_a_at) / RFU ID3 (11757404_x_at) / Fold change /veh ID3 (11757404_x_at) / RFU PLEKHG5 (11737974_s_at) / Fold change /veh PLEKHG5 (11737974_s_at) / RFU LRRC4B (11730491_at) / Fold change /veh LRRC4B (11730491_at) / RFU GIMAP4 (11747438_a_at) / Fold change /veh GIMAP4 (11747438_a_at) / RFU KRT8 (11758183_x_at) / Fold change /veh KRT8 (11758183_x_at) / RFU CNN1 (11734310_a_at) / Fold change /veh CNN1 (11734310_a_at) / RFU VPS37D (11726825_at) / Fold change /veh VPS37D (11726825_at) / RFU C10orf10 (11716522_x_at) / Fold change /veh C10orf10 (11716522_x_at) / RFU KIR2DL2 /// KIR2DL4 /// KIR2DL5A /// KIR2DL5B /// KIR2DS1 /// KIR2DS2 /// KIR2DS3 /// KIR2DS4 /// KIR3DL3 /// KIR3DL3 /// KIR3DS1 (11738374_at) / Fold change /veh KIR2DL2 /// KIR2DL4 /// KIR2DL5A /// KIR2DL5B /// KIR2DS1 /// KIR2DS2 /// KIR2DS3 /// KIR2DS4 /// KIR3DL3 /// KIR3DL3 /// KIR3DS1 (11738374_at) / RFU C1QL1 (11718748_at) / Fold change /veh C1QL1 (11718748_at) / RFU TMPRSS4 (11747572_a_at) / Fold change /veh TMPRSS4 (11747572_a_at) / RFU HAMP (11756126_x_at) / Fold change /veh HAMP (11756126_x_at) / RFU RNFT2 (11725882_a_at) / Fold change /veh RNFT2 (11725882_a_at) / RFU NR4A2 (11747474_a_at) / Fold change /veh NR4A2 (11747474_a_at) / RFU ABCC12 (11746883_a_at) / Fold change /veh ABCC12 (11746883_a_at) / RFU TMEM136 (11760407_x_at) / Fold change /veh TMEM136 (11760407_x_at) / RFU CLDN22 /// WWC2 (11732394_at) / Fold change /veh CLDN22 /// WWC2 (11732394_at) / RFU HLA-DPB1 (11760878_x_at) / Fold change /veh HLA-DPB1 (11760878_x_at) / RFU SPINT1 (11716480_a_at) / Fold change /veh SPINT1 (11716480_a_at) / RFU GAP43 (11754022_s_at) / Fold change /veh GAP43 (11754022_s_at) / RFU A4GNT (11735810_at) / Fold change /veh A4GNT (11735810_at) / RFU PRB3 (11715151_x_at) / Fold change /veh PRB3 (11715151_x_at) / RFU TUBB4B (11761932_at) / Fold change /veh TUBB4B (11761932_at) / RFU CAPN14 (11732068_a_at) / Fold change /veh CAPN14 (11732068_a_at) / RFU TMCC2 (11721928_a_at) / Fold change /veh TMCC2 (11721928_a_at) / RFU IRGQ (11745062_a_at) / Fold change /veh IRGQ (11745062_a_at) / RFU FAM174B (11720279_a_at) / Fold change /veh FAM174B (11720279_a_at) / RFU TMPRSS4 (11748680_a_at) / Fold change /veh TMPRSS4 (11748680_a_at) / RFU FAM212B (11763350_a_at) / Fold change /veh FAM212B (11763350_a_at) / RFU PLEKHG5 (11743358_a_at) / Fold change /veh PLEKHG5 (11743358_a_at) / RFU ZSCAN30 (11745921_a_at) / Fold change /veh ZSCAN30 (11745921_a_at) / RFU CMKLR1 (11741424_a_at) / Fold change /veh CMKLR1 (11741424_a_at) / RFU LOC101060620 /// MAPK8IP1 (11723275_at) / Fold change /veh LOC101060620 /// MAPK8IP1 (11723275_at) / RFU SPTSSB (11747773_x_at) / Fold change /veh SPTSSB (11747773_x_at) / RFU PRSS12 (11739890_at) / Fold change /veh PRSS12 (11739890_at) / RFU BIN1 (11741810_x_at) / Fold change /veh BIN1 (11741810_x_at) / RFU WNT11 (11732464_a_at) / Fold change /veh WNT11 (11732464_a_at) / RFU C10orf10 (11716521_a_at) / Fold change /veh C10orf10 (11716521_a_at) / RFU C5orf56 (11738089_at) / Fold change /veh C5orf56 (11738089_at) / RFU CYB561 (11721691_x_at) / Fold change /veh CYB561 (11721691_x_at) / RFU ANKRD19P (11752326_a_at) / Fold change /veh ANKRD19P (11752326_a_at) / RFU OR2T12 /// OR2T33 /// OR2T8 (11738714_s_at) / Fold change /veh OR2T12 /// OR2T33 /// OR2T8 (11738714_s_at) / RFU VCAN (11748164_a_at) / Fold change /veh VCAN (11748164_a_at) / RFU JSRP1 (11732532_at) / Fold change /veh JSRP1 (11732532_at) / RFU KRTAP10-11 (11738290_x_at) / Fold change /veh KRTAP10-11 (11738290_x_at) / RFU MYO3A (11730013_a_at) / Fold change /veh MYO3A (11730013_a_at) / RFU EBF3 (11725865_a_at) / Fold change /veh EBF3 (11725865_a_at) / RFU CAMK2N1 (11719241_x_at) / Fold change /veh CAMK2N1 (11719241_x_at) / RFU C5orf56 (11738088_a_at) / Fold change /veh C5orf56 (11738088_a_at) / RFU OLFML3 (11715873_a_at) / Fold change /veh OLFML3 (11715873_a_at) / RFU LOC100653217 /// NTM (11731650_a_at) / Fold change /veh LOC100653217 /// NTM (11731650_a_at) / RFU MAPK11 (11762145_a_at) / Fold change /veh MAPK11 (11762145_a_at) / RFU FIZ1 (11724087_x_at) / Fold change /veh FIZ1 (11724087_x_at) / RFU OASL (11726364_x_at) / Fold change /veh OASL (11726364_x_at) / RFU SOX15 (11748057_x_at) / Fold change /veh SOX15 (11748057_x_at) / RFU CD79A (11719716_a_at) / Fold change /veh CD79A (11719716_a_at) / RFU HIST1H1D (11736915_at) / Fold change /veh HIST1H1D (11736915_at) / RFU CASKIN2 (11723855_a_at) / Fold change /veh CASKIN2 (11723855_a_at) / RFU LOC730098 (11760151_x_at) / Fold change /veh LOC730098 (11760151_x_at) / RFU OR4N2 (11742367_at) / Fold change /veh OR4N2 (11742367_at) / RFU PRRT2 (11749266_a_at) / Fold change /veh PRRT2 (11749266_a_at) / RFU SNX32 (11753110_a_at) / Fold change /veh SNX32 (11753110_a_at) / RFU CDHR5 (11726645_a_at) / Fold change /veh CDHR5 (11726645_a_at) / RFU RCAN1 (11760418_a_at) / Fold change /veh RCAN1 (11760418_a_at) / RFU FAM167A (11723789_a_at) / Fold change /veh FAM167A (11723789_a_at) / RFU FAM26E (11764081_at) / Fold change /veh FAM26E (11764081_at) / RFU ISYNA1 (11749810_s_at) / Fold change /veh ISYNA1 (11749810_s_at) / RFU ACY1 (11761880_at) / Fold change /veh ACY1 (11761880_at) / RFU 11764098_at / Fold change /veh 11764098_at / RFU SAMD14 (11745864_x_at) / Fold change /veh SAMD14 (11745864_x_at) / RFU NPB (11741838_a_at) / Fold change /veh NPB (11741838_a_at) / RFU TMPRSS6 (11731388_a_at) / Fold change /veh TMPRSS6 (11731388_a_at) / RFU KRTAP10-2 (11738614_at) / Fold change /veh KRTAP10-2 (11738614_at) / RFU ARHGAP8 /// PRR5-ARHGAP8 (11727945_x_at) / Fold change /veh ARHGAP8 /// PRR5-ARHGAP8 (11727945_x_at) / RFU KRTAP5-7 /// NADSYN1 (11734609_at) / Fold change /veh KRTAP5-7 /// NADSYN1 (11734609_at) / RFU RASL12 (11751679_a_at) / Fold change /veh RASL12 (11751679_a_at) / RFU CDKN2B (11736163_a_at) / Fold change /veh CDKN2B (11736163_a_at) / RFU PRF1 (11729649_at) / Fold change /veh PRF1 (11729649_at) / RFU, ZNF638 /// ZNF638-IT1 / Fold change vs veh, ZNF638 /// ZNF638-IT1 / RFU, PANK3 / Fold change vs veh, PANK3 / RFU, SH3YL1 / Fold change vs veh, SH3YL1 / RFU, ZEB2 / Fold change vs veh, ZEB2 / RFU, NRIP1 / Fold change vs veh, NRIP1 / RFU, PTTG1IP / Fold change vs veh, PTTG1IP / RFU, CAPN2 / Fold change vs veh, CAPN2 / RFU, MED14 / Fold change vs veh, MED14 / RFU, SNORA58 / Fold change vs veh, SNORA58 / RFU, C1orf63 / Fold change vs veh, C1orf63 / RFU, LRRFIP1 / Fold change vs veh, LRRFIP1 / RFU, NDUFAF7 / Fold change vs veh, NDUFAF7 / RFU, SLC12A2 / Fold change vs veh, SLC12A2 / RFU, IBTK / Fold change vs veh, IBTK / RFU, ESF1 / Fold change vs veh, ESF1 / Fold change vs veh, TMEM50B / RFU, TAOK1 / Fold change vs veh, TAOK1 / RFU, ACBD3 / Fold change vs veh, ACBD3 / RFU, TMA16 / Fold change vs veh, TMA16 / RFU, RWDD3 / Fold change vs veh, RWDD3 / RFU, BCAT1 / Fold change vs veh, BCAT1 / RFU, EDEM3 / Fold change vs veh, EDEM3 / RFU, TMEM33 / Fold change vs veh, TMEM33 / RFU, WDR75 / Fold change vs veh, WDR75 / RFU, AHCTF1 / Fold change vs veh, AHCTF1 / RFU, TFRC / Fold change vs veh, TFRC / RFU, ZDHHC17 / Fold change vs veh, ZDHHC17 / RFU, NOM1 / Fold change vs veh, NOM1 / RFU, ARL8B / Fold change vs veh, ARL8B / RFU, ZBTB11 / Fold change vs veh, ZBTB11 / RFU, TAMM41 / Fold change vs veh, TAMM41 / RFU, KIAA1704 /// LOC100996395 / Fold change vs veh, KIAA1704 /// LOC100996395 / RFU, ING1 / Fold change vs veh, ING1 / RFU, TRMT61B / Fold change vs veh, TRMT61B / RFU, FUBP3 / Fold change vs veh, FUBP3 / RFU, TP53 / Fold change vs veh, TP53 / RFU, TNKS2 / Fold change vs veh, TNKS2 / RFU, ZFP14 / Fold change vs veh, ZFP14 / RFU, ACTR2 / Fold change vs veh, ACTR2 / RFU, PPP3R1 / Fold change vs veh, PPP3R1 / RFU, PIK3R1 / Fold change vs veh, PIK3R1 / RFU, HNRNPA1 / Fold change vs veh, HNRNPA1 / RFU, RNF170 / Fold change vs veh, RNF170 / RFU, ZNF28 / Fold change vs veh, ZNF28 / RFU, RNGTT / Fold change vs veh, RNGTT / RFU, OGT / Fold change vs veh, OGT / RFU, BRD1 / Fold change vs veh, BRD1 / RFU, MARS / Fold change vs veh, MARS / RFU, ZNF655 / Fold change vs veh, ZNF655 / RFU, FAHD1 / Fold change vs veh, FAHD1 / RFU, BDP1 / Fold change vs veh, BDP1 / RFU, LRRCC1 / Fold change vs veh, LRRCC1 / RFU, ARID1A / Fold change vs veh, ARID1A / RFU, ZNF146 / Fold change vs veh, ZNF146 / RFU, ZNF330 / Fold change vs veh, ZNF330 / RFU, GPN3 / Fold change vs veh, GPN3 / RFU, C9orf123 / Fold change vs veh, C9orf123 / RFU, N4BP2L2 / Fold change vs veh, N4BP2L2 / RFU, ARFIP1 / Fold change vs veh, ARFIP1 / RFU, FAM179B / Fold change vs veh, FAM179B / RFU, BCL10 / Fold change vs veh, BCL10 / RFU, UHRF1BP1L / Fold change vs veh, UHRF1BP1L / RFU, BET1 / Fold change vs veh, BET1 / RFU, CNOT2 / Fold change vs veh, CNOT2 / RFU, ZNF268 / Fold change vs veh, ZNF268 / Fold change vs veh, ZNF507 / RFU, DGCR2 / Fold change vs veh, DGCR2 / RFU, WDSUB1 / Fold change vs veh, WDSUB1 / Fold change vs veh, HSP90B1 /// MIR3652 / RFU, ADSS / Fold change vs veh, ADSS / RFU, GK / Fold change vs veh, GK / RFU, ZNF148 / Fold change vs veh, ZNF148 / RFU, TAF9 / Fold change vs veh, TAF9 / RFU, SLC1A5 / Fold change vs veh, SLC1A5 / RFU, SLMO2 / Fold change vs veh, SLMO2 / RFU, ABCC4 / Fold change vs veh, ABCC4 / RFU, LOC101060439 /// RAP1B / Fold change vs veh, LOC101060439 /// RAP1B / RFU, RFX7 / Fold change vs veh, RFX7 / RFU, GTPBP10 / Fold change vs veh, GTPBP10 / RFU, CNEP1R1 / Fold change vs veh, CNEP1R1 / RFU, BIVM-ERCC5 /// ERCC5 / Fold change vs veh, BIVM-ERCC5 /// ERCC5 / RFU, ILF3 / Fold change vs veh, ILF3 / RFU 11762660_at / Fold change /veh 11762660_at / RFU VCAN (11757783_s_at) / Fold change /veh VCAN (11757783_s_at) / RFU DDX43 (11728927_at) / Fold change /veh DDX43 (11728927_at) / RFU KRT8 (11758188_x_at) / Fold change /veh KRT8 (11758188_x_at) / RFU NKD1 (11759106_at) / Fold change /veh NKD1 (11759106_at) / RFU SRD5A1 (11742802_a_at) / Fold change /veh SRD5A1 (11742802_a_at) / RFU TPSAB1 /// TPSB2 (11721975_s_at) / Fold change /veh TPSAB1 /// TPSB2 (11721975_s_at) / RFU GSTM3 (11746129_a_at) / Fold change /veh GSTM3 (11746129_a_at) / RFU IL23R (11737362_x_at) / Fold change /veh IL23R (11737362_x_at) / RFU TMEM51 (11727254_a_at) / Fold change /veh TMEM51 (11727254_a_at) / RFU PIWIL2 (11732686_x_at) / Fold change /veh PIWIL2 (11732686_x_at) / RFU ORM1 (11744905_x_at) / Fold change /veh ORM1 (11744905_x_at) / RFU CCDC152 (11743942_at) / Fold change /veh CCDC152 (11743942_at) / RFU ECM1 (11717891_a_at) / Fold change /veh ECM1 (11717891_a_at) / RFU IL23R (11748794_a_at) / Fold change /veh IL23R (11748794_a_at) / RFU TNFAIP8L3 (11732012_x_at) / Fold change /veh TNFAIP8L3 (11732012_x_at) / RFU MBOAT4 (11741988_at) / Fold change /veh MBOAT4 (11741988_at) / RFU 11764193_at / Fold change /veh 11764193_at / RFU TMEM53 (11763286_at) / Fold change /veh TMEM53 (11763286_at) / RFU MAGEB2 (11727129_at) / Fold change /veh MAGEB2 (11727129_at) / RFU TMEM200A (11744735_a_at) / Fold change /veh TMEM200A (11744735_a_at) / RFU CCDC152 (11751479_a_at) / Fold change /veh CCDC152 (11751479_a_at) / RFU FAM211A (11726209_a_at) / Fold change /veh FAM211A (11726209_a_at) / RFU RGS16 (11746705_a_at) / Fold change /veh RGS16 (11746705_a_at) / RFU VCAN (11755009_s_at) / Fold change /veh VCAN (11755009_s_at) / RFU RHOB (11743442_s_at) / Fold change /veh RHOB (11743442_s_at) / RFU RGS16 (11720943_a_at) / Fold change /veh RGS16 (11720943_a_at) / RFU RGS16 (11720944_at) / Fold change /veh RGS16 (11720944_at) / RFU, VPS4B / Fold change vs veh, VPS4B / RFU, CREB1 / Fold change vs veh, CREB1 / RFU, DNAJC13 / Fold change vs veh, DNAJC13 / RFU, GNAQ / Fold change vs veh, GNAQ / RFU, CDK5R1 / Fold change vs veh, CDK5R1 / RFU, ZRANB3 / Fold change vs veh, ZRANB3 / RFU, CUL4A / Fold change vs veh, CUL4A / RFU, CCNY / Fold change vs veh, CCNY / RFU, UFL1 / Fold change vs veh, UFL1 / RFU, COG3 / Fold change vs veh, COG3 / RFU, DIAPH2 / Fold change vs veh, DIAPH2 / RFU, SKA2 / Fold change vs veh, SKA2 / RFU, AFF3 / Fold change vs veh, AFF3 / RFU, LMF1 / Fold change vs veh, LMF1 / RFU, IPO11 / Fold change vs veh, IPO11 / RFU, DFFB / Fold change vs veh, DFFB / RFU, FOXP1 / Fold change vs veh, FOXP1 / RFU, CARD8 / Fold change vs veh, CARD8 / RFU, STRN3 / Fold change vs veh, STRN3 / RFU, ADK / Fold change vs veh, ADK / RFU, RASSF2 / Fold change vs veh, RASSF2 / RFU, WIPF1 / Fold change vs veh, WIPF1 / RFU, LARP1B / Fold change vs veh, LARP1B / RFU, RASA1 / Fold change vs veh, RASA1 / RFU, RB1 / Fold change vs veh, RB1 / RFU, PPFIA1 / Fold change vs veh, PPFIA1 / RFU, MAT2A / Fold change vs veh, MAT2A / RFU, CCT5 / Fold change vs veh, CCT5 / RFU, WDR92 / Fold change vs veh, WDR92 / RFU, CUX1 / Fold change vs veh, CUX1 / RFU, TTC7A / Fold change vs veh, TTC7A / RFU, TMEM135 / Fold change vs veh, TMEM135 / RFU, DEPTOR / Fold change vs veh, DEPTOR / RFU, CPM / Fold change vs veh, CPM / RFU, DNAJB6 / Fold change vs veh, DNAJB6 / RFU, CACNA2D3 / Fold change vs veh, CACNA2D3 / RFU, DTX4 / Fold change vs veh, DTX4 / RFU, TFCP2 / Fold change vs veh, TFCP2 / RFU, GMCL1 /// GMCL1P1 / Fold change vs veh, GMCL1 /// GMCL1P1 / RFU, AEBP2 / Fold change vs veh, AEBP2 / RFU, SNHG1 /// SNORD22 /// SNORD25 /// SNORD26 /// SNORD27 /// SNORD28 /// SNORD29 /// SNORD31 / Fold change vs veh, SNHG1 /// SNORD22 /// SNORD25 /// SNORD26 /// SNORD27 /// SNORD28 /// SNORD29 /// SNORD31 / Fold change (Aza/veh), C12orf56 (ProbeSet 11735607_a_at) / Fold change (ACY-1035/veh), C12orf56 (ProbeSet 11735607_a_at) / Fold change (Aza/veh), FGFR1OP (ProbeSet 11751329_s_at) / Fold change (ACY-1035/veh), FGFR1OP (ProbeSet 11751329_s_at) / Fold change (Aza/veh), VPS36 (ProbeSet 11739960_a_at) / Fold change (ACY-1035/veh), VPS36 (ProbeSet 11739960_a_at) / RFU SYPL1 (11715823_x_at) / Fold change /veh SYPL1 (11715823_x_at) / RFU IGFBP7 (11715501_s_at) / Fold change /veh IGFBP7 (11715501_s_at) / RFU REEP3 (11722064_at) / Fold change /veh REEP3 (11722064_at) / RFU IGLL1 (11728026_x_at) / Fold change /veh IGLL1 (11728026_x_at): dose or concentration left out as unconfirmed. The following applies: MV-4-11 cells, 48 hours.

The structures appear in SMILES notation.

`Nc1ncn([C@@H]2O[C@H](CO)[C@@H](O)[C@H]2O)c(=O)n1` [azacitidine]: the “RFU RNFT2 (11725882_a_at)” value came out at 15.64 RFU.
